66 compounds from patent US12577217B2, “15-PGDH inhibitor” (KYORIN Pharmaceutical Co., Ltd., priority 2019, dated 2026) can be followed below.

The target in the assay is T1, recombinant human 15-PGDH (Homo sapiens, UniProt P15428).
T1 construct: purchased R&D Systems
T1 sequence (P15428 1-266): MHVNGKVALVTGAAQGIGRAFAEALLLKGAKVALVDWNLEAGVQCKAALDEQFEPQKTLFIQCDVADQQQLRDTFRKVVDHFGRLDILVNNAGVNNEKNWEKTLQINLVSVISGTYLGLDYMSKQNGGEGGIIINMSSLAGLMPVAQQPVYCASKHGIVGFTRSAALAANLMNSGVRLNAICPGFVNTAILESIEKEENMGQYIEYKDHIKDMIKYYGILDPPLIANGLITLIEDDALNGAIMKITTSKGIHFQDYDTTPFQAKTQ
In words: 15-PGDH enzyme inhibition test. In kind it is biochemical. Particulars: 4 nM recombinant human 15-PGDH, 30 μM PGE2, 1 mM NAD+, 60 minutes after starting the reaction; read-out: IC50 Value. The gist of the method: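 4 nM recombinant human enzyme pre-incubated with compound 12 min at room temperature in 50 mM Tris-HCl pH 8.0 with 0.01% Tween 20 and 0.01% bovine gamma globulin. Reaction started with 30 μM PGE2 and 1 mM NAD+, read after 60 min by fluorescence (ex 340/em 440 nm). IC50 from concentration-response curve.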

Some results are limits rather than exact numbers.

With `O=C(O)c1ccc(N2CCOc3cc(C(=O)N4CCCCC4)cnc32)cn1` [Example 2-38], the IC50 is below 0.01 µM.
The same measure for `O=C(c1ccc2c(c1)OCCN2c1ccc(-c2nnn[nH]2)cc1)N1CCC(F)(F)CC1` [Example 3-1, (4-(4-(1H-Tetrazol-5-yl)phenyl)-3,4-dihydro-2H-benzo[b][1,4]oxazin-7-yl)(4,4-difluoropiperidin-1-yl)methanone]: below 0.01 µM.
Next, `Cc1c(C(=O)N2CCCCC2)ccc2c1OCCN2c1ccc(C(=O)O)cc1` [Example 4-1, 4-(8-Methyl-7-(piperidine-1-carbonyl)-2,3-dihydro-4H-benzo[b][1,4]oxazin-4-yl)benzoic Acid]: below 0.01 µM; `O=C(O)c1ccc(N2CCOc3cc(C(=O)N4CCCCC4)cnc32)cc1` [Example 4-2]: below 0.01 µM.
Regarding `O=C(O)c1ccc(N2CCOc3nc(C(=O)N4CCCCC4)ccc32)cc1` [Example 4-4], the IC50 was below 0.01 µM.
Turning to `O=C(O)c1ccc(N2CCOc3cc(C(=O)N4CCC(F)(F)CC4)cnc32)cc1` [Example 4-5], the IC50 is below 0.01 µM.
The same measure for `O=C(O)c1ccc(N2CCOc3cc(C(=O)N4CCCC(F)(F)C4)cnc32)cc1` [Example 4-6]: below 0.01 µM; for `O=C(O)c1ccc(N2CCOc3cc(C(=O)N4CCC[C@@H](F)C4)cnc32)cc1` [Example 4-7]: below 0.01 µM.
Next, `O=C(O)c1ccc(N2CCOc3cc(C(=O)N4CCC[C@H](F)C4)cnc32)cc1` [Example 4-8]: below 0.01 µM; `O=C(O)c1ccc(N2CCOc3cc(C(=O)N4CC=CCC4)cnc32)cc1` [Example 4-9]: below 0.01 µM; `O=C(O)c1ccc(N2CCOc3cc(C(=O)N4CCOCC4)cnc32)cc1` [Example 4-10]: 0.01 to 0.1 µM.
Next, `CN1CCN(C(=O)c2cnc3c(c2)OCCN3c2ccc(C(=O)O)cc2)CC1` [Example 4-11]: 0.01 to 0.1 µM; `O=C(O)c1ccc(N2CCOc3cc(C(=O)N4CCCCC4)sc32)cc1` [Example 4-12]: below 0.01 µM.
Consider `O=C(O)C1CCC(N2CCOc3cc(C(=O)N4CCCCC4)ccc32)CC1` (stereo not drawn) [Example 4-13], for which the IC50 was 0.01 to 0.1 µM.
As for `O=C(O)C1CCC(N2CCOc3cc(C(=O)N4CCCCC4)ccc32)CC1` (stereo not drawn) [Example 4-14], the IC50 is below 0.01 µM.
Next, `COc1cc(N2CCOc3cc(C(=O)N4CCCCC4)cnc32)ccc1C(=O)O` [Example 4-15]: 0.01 to 0.1 µM; `Cc1cc(N2CCOc3cc(C(=O)N4CCCCC4)cnc32)ccc1C(=O)O` [Example 4-16]: below 0.01 µM.
For `O=C(O)c1ccc(N2CCOc3cc(C(=O)N4CCCCC4)cnc32)cc1Cl` [Example 4-17], the IC50 is below 0.01 µM.
For `Cc1cc(C(=O)O)ccc1N1CCOc2cc(C(=O)N3CCCCC3)cnc21` [Example 4-18], the IC50 fell in the range of 0.01 to 0.1 µM.
Turning to `O=C(O)c1cccc(N2CCOc3cc(C(=O)N4CCCCC4)cnc32)c1` [Example 4-19], the IC50 is 0.01 to 0.1 µM.
On to `O=C(O)c1cccc(N2CCCc3cc(C(=O)N4CCCCC4)cnc32)c1` [Example 4-20], for which the IC50 was in the range of 0.01 to 0.1 µM.
With `CN1CCN(c2ccc(C(=O)O)cc2)c2ncc(C(=O)N3CCCCC3)cc21` [Example 4-21], the IC50 was below 0.01 µM.
Next, `COc1cc(N2CCOc3cc(C(=O)N4CC=CCC4)ccc32)ccc1C(N)=O` [Example 5-1, 2-Methoxy-4-(7-(1,2,3,6-tetrahydropyridine-1-carbonyl)-2,3-dihydro-4H-benzo[b][1,4]oxazin-4-yl)benzamide]: below 0.01 µM; `COc1cc(N2CCOc3cc(C(=O)N4CCC(F)(F)CC4)ccc32)ccc1C(N)=O` [Example 5-2]: below 0.01 µM; `CNC(=O)c1ccc(N2CCOc3cc(C(=O)N4CC=CCC4)ccc32)cc1OC` [Example 5-3]: below 0.01 µM.
As for `CNC(=O)c1ccc(N2CCOc3cc(C(=O)N4CCC(F)(F)CC4)ccc32)cc1OC` [Example 6-1, 4-(7-(4,4-Difluoropiperidine-1-carbonyl)-2,3-dihydro-4H-benzo[b][1,4]oxazin-4-yl)-2-methoxy-N-methylbenzamide], the IC50 was below 0.01 µM.
Turning to `NC(=O)c1ccc(N2CCOc3cc(C(=O)N4CCCCC4)ccc32)nc1` [Example 6-2], the IC50 was below 0.01 µM.
With `NC(=O)c1ccc(N2CCOc3cc(C(=O)N4CCCCC4)ccc32)cn1` [Example 6-3], the IC50 is below 0.01 µM.
The same measure for `NC(=O)c1ccc(N2CCOc3cc(C(=O)N4CCCCC4)cnc32)cc1F` [Example 6-4]: below 0.01 µM; for `CNC(=O)c1ccc(N2CCOc3cc(C(=O)N4CCCCC4)cnc32)cc1F` [Example 6-5]: below 0.01 µM.
In the case of `NC(=O)Cn1nc2cc(N3CCOc4cc(C(=O)N5CCCCC5)cnc43)ccn2c1=O` [Example 6-6], the IC50 is below 0.01 µM.
Next, `CNC(=O)Cn1nc2cc(N3CCOc4cc(C(=O)N5CCCCC5)cnc43)ccn2c1=O` [Example 6-7]: below 0.01 µM.
Next, `CN(C)C(=O)Cn1nc2cc(N3CCOc4cc(C(=O)N5CCCCC5)cnc43)ccn2c1=O` [Example 6-8]: below 0.01 µM; `CNC(=O)c1cn(C)c2cc(N3CCOc4cc(C(=O)N5CCCCC5)cnc43)ccc12` [Example 6-10]: above 0.1 µM.
For `CNC(=O)c1cc2ccc(N3CCOc4cc(C(=O)N5CCCCC5)cnc43)cc2n1C` [Example 6-11], the IC50 was in the range of 0.01 to 0.1 µM.
The same measure for `CNC(=O)c1ccc(N2CCOc3cc(C(=O)N4CCCCC4)cnc32)cc1C` [Example 6-12]: above 0.1 µM; for `CNC(=O)c1ccc(N2CCOc3cc(C(=O)N4CCCCC4)cnc32)c(C)c1` [Example 6-13]: above 0.1 µM; for `NC(=O)c1ccc(N2CCCc3cc(C(=O)N4CCCCC4)cnc32)cc1` [Example 6-14]: below 0.01 µM.
Next, `CN(C)C(=O)c1ccc(N2CCCc3cc(C(=O)N4CCCCC4)cnc32)cc1` [Example 6-15]: 0.01 to 0.1 µM; `CNC(=O)C1CCC(N2CCOc3cc(C(=O)N4CCCCC4)ccc32)CC1` (stereo not drawn) [Example 6-16]: 0.01 to 0.1 µM; `NC(=O)c1ccc(N2CCOc3cc(C(=O)N4CCCCC4)cnc32)cc1` [Example 6-17]: below 0.01 µM.
`CNC(=O)c1ccc(N2CCOc3cc(C(=O)N4CCCCC4)cnc32)cc1` [Example 6-18]: the IC50 is below 0.01 µM.
Next, `CN(C)C(=O)c1ccc(N2CCOc3cc(C(=O)N4CCCCC4)cnc32)cc1` [Example 6-19]: below 0.01 µM; `CC(C)(C(N)=O)c1ccc(N2CCOc3cc(C(=O)N4CCCCC4)cnc32)cc1` [Example 6-20]: above 0.1 µM; `NC(=O)c1ccc(N2CCOc3cc(C(=O)N4CCCCC4)cnc32)cn1` [Example 6-21]: below 0.01 µM.
For `CNC(=O)c1ccc(N2CCOc3cc(C(=O)N4CCCCC4)cnc32)cn1` [Example 6-22], the IC50 is below 0.01 µM.
In the case of `Cn1nc2cc(N3CCOc4cc([S+]([O-])C5CCCCC5)cnc43)ccn2c1=O` (stereo not drawn) [Example 7-5], the IC50 was below 0.01 µM.
Regarding `Cn1nc2cc(N3CCOc4cc(S(=O)(=O)C5CCCCC5)cnc43)ccn2c1=O` [Example 7-6], the IC50 is above 0.1 µM.
The same measure for `Cn1nc2cc(N3CCCc4cc([S+]([O-])C5CCCCC5)cnc43)ccn2c1=O` (stereo not drawn) [Example 7-7]: below 0.01 µM.
As for `Cn1nc2cc(N3CCCc4cc(S(=O)(=O)C5CCCCC5)cnc43)ccn2c1=O` [Example 7-8], the IC50 was above 0.1 µM.
Turning to `CN1Cc2cc(N3CCOc4cc([S+]([O-])C5CCCCC5)cnc43)ccc2C1=O` (stereo not drawn) [Example 7-9], the IC50 was below 0.01 µM.
Regarding `CN1Cc2cc(N3CCOc4cc(S(=O)(=O)C5CCCCC5)cnc43)ccc2C1=O` [Example 7-10], the IC50 lay within 0.01 to 0.1 µM.
Next, `CC(C)(C)OC(=O)c1ccc(N2CCOc3cc(C(=O)N4CCC[C@@H](F)C4)cnc32)cc1` [Example 8-7]: 0.01 to 0.1 µM; `CC(C)(C)OC(=O)c1ccc(N2CCOc3cc(C(=O)N4CCC[C@H](F)C4)cnc32)cc1` [Example 8-8]: above 0.1 µM; `O=C(c1ccc2c(c1)OCCN2C1CCCCC1)N1CCCCC1` [Example 8-14]: 0.01 to 0.1 µM.
Regarding `CCn1nc2cc(N3CCOc4cc(C(=O)N5CCCCC5)cnc43)ccn2c1=O` [Example 8-15], the IC50 is below 0.01 µM.
The same measure for `CCn1nc2cc(N3CCOc4cc(C(=O)N5CCC5)cnc43)ccn2c1=O` [Example 8-16]: below 0.01 µM; for `CCn1nc2cc(N3CCOc4cc(C(=O)N5CCCCCCC5)cnc43)ccn2c1=O` [Example 8-17]: below 0.01 µM; for `CCN1Cc2cc(N3CCOc4cc(C(=O)N5CCCCC5)cnc43)ccc2C1=O` [Example 8-18]: below 0.01 µM.
The same measure for `CCn1nc2cc(N3CCOc4cc(C(=O)N5CCCC5)cnc43)ccn2c1=O` [Example 8-19]: below 0.01 µM; for `Cn1nc2cc(N3CCOc4cc(C(=O)N5CCCC5)cnc43)ccn2c1=O` [Example 8-20]: below 0.01 µM; for `C[C@@H]1CCCCN1C(=O)c1cnc2c(c1)OCCN2c1ccn2c(=O)n(C)nc2c1` [Example 8-21]: below 0.01 µM.
For the compound `C[C@@H]1CCCN1C(=O)c1cnc2c(c1)OCCN2c1ccn2c(=O)n(C)nc2c1` [Example 8-22], the IC50 fell in the range of 0.01 to 0.1 µM.
`Cn1nc2cc(N3CCOc4cc(C(=O)N5CCC[C@@H](F)C5)cnc43)ccn2c1=O` [Example 8-23]: the IC50 was below 0.01 µM.
On to `Cn1nc2cc(N3CCOc4cc(C(=O)N5CCCC(F)(F)C5)cnc43)ccn2c1=O` [Example 8-24], for which the IC50 is below 0.01 µM.
Regarding `Cn1nc2cc(N3CCOc4cc(C(=O)N5CCC(F)(F)C5)cnc43)ccn2c1=O` [Example 8-25], the IC50 is below 0.01 µM.
